Experimental data published in US7713714B2, “Isolated nona- and decapeptides which bind to HLA molecules, and the use thereof” (Ludwig Institute for Cancer Research, priority 1997, dated 2010).
Read-outs that look alike come from different tables or passages of the source.

How the values were obtained:
[1] = tested on: CTL clone M77.86; assay: 51Cr assay, recognition by Melan-A specific CTL clone M77.86; assay type: cell-based, human; conditions: Table IV; for EC50: read-out: Peptide [nM] 50%; for Relative activity: relative to SEQ ID NO: 2
[2] = tested on: CTL clone 7.10; assay: 51Cr assay, recognition by Melan-A specific CTL clone 7.10; assay type: cell-based, human; conditions: Table IV; for EC50: read-out: Peptide [nM] 50%; for Relative activity: relative to SEQ ID NO: 2
[3] = tested on: Melan-A specific CTL clone; assay: 51Cr assay, recognition by Melan-A specific CTL clone (third clone, name not given); assay type: cell-based, human; conditions: Table IV; for EC50: read-out: Peptide [nM] 50%; for Relative activity: relative to SEQ ID NO: 2
[4] = tested on: CTL clone M77.80; assay: 51Cr assay, recognition by Melan-A specific CTL clone M77.80; assay type: cell-based, human; conditions: Table IV; for EC50: read-out: Peptide [nM] 50%; for Relative activity: relative to SEQ ID NO: 2
[5] = tested on: CTL clone 1.13; assay: 51Cr assay, recognition by Melan-A specific CTL clone 1.13; assay type: cell-based, human; conditions: Table IV; for EC50: read-out: Peptide [nM] 50%; for Relative activity: relative to SEQ ID NO: 2
[6] = target: T1, HLA-A*0201 (Homo sapiens, UniProt P04439, D140Y/D185E/D98H/E176V/E277Q/G131W/G231S/I119V/I121R/I166T/I218V/L300P/L318F/N151K/N90K/P208A/P217A/Q86G/Q94H/R138H/R169H/T345S)
[7] = tested on: TILN LAU 203; assay: 51Cr release assay, TILN recognition of peptide on T2 cells, TILN LAU 203
[8] = tested on: TILN LAU 132; assay: 51Cr release assay, TILN recognition of peptide on T2 cells, TILN LAU 132
[9] = tested on: five HLA-A*0201 restricted Melan-A specific CTL clones; assay: Recognition by five HLA-A*0201 restricted Melan-A specific CTL clones, statements; assay type: cell-based, human; conditions: compared with SEQ ID NO: 2
[10] = tested on: panel of the CTLs; assay: Recognition assay dissecting the CTL panel (Example 10)
[11] = target: T1, HLA-A*0201; conditions: Table II; relative to SEQ ID NO: 2
[12] = target: T1, HLA-A*0201; remark: listed apart in the source
[13] = target: T1, HLA-A*0201; conditions: relative to SEQ ID NO: 1
[14] = target: T1, HLA-A*0201; conditions: fluorescence index, 16 hours, 23° C.
[15] = read-out:, Table III, dose response, T2 cells
[16] = Table III, relative to SEQ ID NO: 2
[17] = Table I, [nM]50% SEQ ID NO: 2 / [nM]50% test peptide
[18] = read-out: Peptide [nM] 50%, Table I, T2 targets, effector:target 30:1, concentration giving 50% of maximum activity

Compound | EC50 [1] [nM] | EC50 [2] [nM] | EC50 [3] [nM] | EC50 [4] [nM] | EC50 [5] [nM] | stability of peptide/HLA-A*0201 complexes [6] | EC50 [7, 15] [nM] | EC50 [8, 15] [nM] | recognition by the five CTL clones, in words [9] | further results
CC[C@H](C)[C@H](NC(=O)CNC(=O)[C@H](CC(C)C)NC(=O)[C@H](C)N)C(=O)NCC(=O)N[C@H](C(=O)N[C@@H](CC(C)C)C(=O)N[C@H](C(=O)N[C@H](C(=O)O)C(C)C)[C@@H](C)O)[C@@H](C)CC [SEQ ID NO: 5] | 90 | > 1000 | > 1000 | > 1000 | > 10000 | intermediate stability | > 1000 | > 1000 |  | 
CC[C@H](C)[C@H](NC(=O)CNC(=O)[C@H](CCSC)NC(=O)[C@H](C)N)C(=O)NCC(=O)N[C@H](C(=O)N[C@@H](CC(C)C)C(=O)N[C@H](C(=O)N[C@H](C(=O)O)C(C)C)[C@@H](C)O)[C@@H](C)CC [SEQ ID NO: 6] | > 1000 | > 1000 | > 1000 | > 1000 | > 10000 | intermediate stability | > 1000 | > 1000 |  | 
CC[C@H](C)[C@H](NC(=O)CNC(=O)[C@H](C)NC(=O)[C@@H](N)CCSC)C(=O)NCC(=O)N[C@H](C(=O)N[C@@H](CC(C)C)C(=O)N[C@H](C(=O)N[C@H](C(=O)O)C(C)C)[C@@H](C)O)[C@@H](C)CC [SEQ ID NO: 8] | 0.6 | 15 | 200 | 0.5 | 80 | unstable complexes, which decay within one hour | 8 | 2.5 |  | 
CC[C@H](C)[C@H](NC(=O)CNC(=O)[C@H](CC(C)C)NC(=O)[C@H](C)NC(=O)[C@@H](N)CCC(=O)O)C(=O)NCC(=O)N[C@H](C(=O)N[C@@H](CC(C)C)C(=O)N[C@H](C(=O)N[C@H](C(=O)O)C(C)C)[C@@H](C)O)[C@@H](C)CC [SEQ ID NO: 11] | 0.015 | 0.5 | 0.015 | 0.5 | 20 | intermediate stability | > 1000 | > 1000 | reduced recognition for four of five | 
CC[C@H](C)[C@H](NC(=O)CNC(=O)[C@H](CCSC)NC(=O)[C@H](C)NC(=O)[C@@H](N)CCC(=O)O)C(=O)NCC(=O)N[C@H](C(=O)N[C@@H](CC(C)C)C(=O)N[C@H](C(=O)N[C@H](C(=O)O)C(C)C)[C@@H](C)O)[C@@H](C)CC [SEQ ID NO: 12] | 550 | > 1000 | 40 | > 1000 | > 10000 | intermediate stability | > 1000 | > 1000 | recognition improved | 
CC[C@H](C)[C@H](NC(=O)CNC(=O)[C@H](C)NC(=O)[C@H](C)NC(=O)[C@@H](N)Cc1ccc(O)cc1)C(=O)NCC(=O)N[C@H](C(=O)N[C@@H](CC(C)C)C(=O)N[C@H](C(=O)N[C@H](C(=O)O)C(C)C)[C@@H](C)O)[C@@H](C)CC [SEQ ID NO: 13] | 0.015 | 35 | > 1000 | 1000 | > 10000 |  | 5 | 1 | reduced recognition by the CTLs | Relative activity [1]: 1000; Relative activity [2]: 1.4; Relative activity [3]: <0.3; Relative activity [4]: 0.3; Relative activity [5]: <0.4; recognition by a fifth CTL [10]: recognized; recognition by four of the CTLs [10]: equally well; recognition by two other CTLs [10]: not; Relative activity [7, 16]: 20; Relative activity [8, 16]: 30
CC[C@H](C)[C@H](NC(=O)CNC(=O)[C@H](C)NC(=O)[C@H](C)NC(=O)[C@@H](N)Cc1ccccc1)C(=O)NCC(=O)N[C@H](C(=O)N[C@@H](CC(C)C)C(=O)N[C@H](C(=O)N[C@H](C(=O)O)C(C)C)[C@@H](C)O)[C@@H](C)CC [SEQ ID NO: 14] | 0.005 | 7 | > 1000 | > 1000 | 200 |  | 1 | 0.05 | reduced recognition by the CTLs | Relative activity [1]: 3000; Relative activity [2]: 7; Relative activity [3]: <0.3; Relative activity [4]: <0.3; Relative activity [5]: 20; recognition by a fifth CTL [10]: not; recognition by four of the CTLs [10]: equally well; recognition by two other CTLs [10]: recognized; Relative activity [7, 16]: 60; Relative activity [8, 16]: 600
C[C@H](NC(=O)[C@@H](N)CCC(=O)O)C(=O)N[C@@H](CC(=O)O)C(=O)N1CCC[C@H]1C(=O)N[C@H](C(=O)NCC(=O)N[C@@H](Cc1c[nH]cn1)C(=O)N[C@@H](CO)C(=O)N[C@@H](Cc1ccc(O)cc1)C(=O)O)[C@@H](C)O [SEQ ID NO: 21] |  |  |  |  |  |  |  |  |  | Relative competitor activity [11]: <0.6; binding to HLA-A*0201 compared with SEQ ID NO: 2, in words [12]: no binding
Glu Ala Ala Gly Ile Gly Ile Ala Thr Val [SEQ ID NO: 23] |  |  |  |  |  |  |  |  |  | change in competitor activity, in words [13]: did not result in significant changes in activity
Glu Ala Ala Gly Ile Gly Ile Leu Ala Val [SEQ ID NO: 24] |  |  |  |  |  |  |  |  |  | change in competitor activity, in words [13]: did not result in significant changes in activity
ILTVILGVL [SEQ ID NO: 4, reference compound] |  |  |  |  |  |  |  |  |  | binding to HLA-A*0201 compared with SEQ ID NO: 2, in words [12]: comparable to SEQ ID NO: 2; relative binding activity, in words [14]: about the same as SEQ ID NO: 2; Relative activity [7, 17]: <4 × 10^−3; EC50 [7, 18]: > 10000 nM; Relative activity [8, 17]: <1.5 × 10^−3; EC50 [8, 18]: > 10000 nM
Lys Leu Val Val Val Gly Ala Val Gly Val [SEQ ID NO: 20] |  |  |  |  |  |  |  |  |  | lysis percentage ([12]; peptide used alone, CTL clone 7 RAS, T2 cells): 80%
